Data reported in patent US20100016275A1, “NOVEL COMPOUND 395” (priority 2008, published 2010).

How the values were obtained:
human plasma proteins = experiment: Measurement of plasma protein binding (PPB) by equilibrium dialysis; type: in vitro ADME; settings: human plasma; for Human plasma protein binding PPB (% free): equilibrium dialysis, 37° C., pH 7.4
Protocol: (§1) Measurement of Plasma Protein Binding (PPB)
(§2) The extent of binding of a drug to plasma proteins is a crucial factor in determining its in vivo potency and pharmacokinetics. The method used for determining the extent of plasma protein binding involves equilibrium dialysis of the compound between plasma and buffer at 37° C. The concentrations of compound in the plasma and buffer are then determined using high pressure liquid chromatography (HPLC) with mass spectroscopy (MS) detection. The dialysis method involves the use of mixtures of up to 10 compounds simultaneously. It has been shown that at the concentrations used in the assay, there is no significant difference in the results when compounds are run singly or in mixtures.
(§3) Membranes (molecular weight cut-off 5000) were first prepared by soaking in the dialysis buffer for a minimum of 1 hour. The dialysis membranes were then mounted into the dialysis cells.
(§4) Stock solutions of compounds in dimethylsulphoxide (DMSO) were prepared. This, and all subsequent liquid handling steps, were normally done using a Tecan liquid handling robot. Mixtures of up to five compounds were used. The concentration of each compound in a mixture was normally 1 mM. The mixtures were chosen such that each mixture contains compounds that all have at least a 5 unit difference in molecular weight from one another.
(§5) Frozen plasma (EDTA anticoagulant) was normally used for the human plasma binding experiment. The pH of the plasma was adjusted to 7.4 using 1 M HCl immediately before use.
(§6) The stock DMSO solution of compounds (7.5 μL) was then added to the dialysis cells along with plasma (750 μl). This was done in duplicate for each mixture. This gave a 1% DMSO in plasma solution with each compound at a concentration of 10 μM (if the stock solution was the standard 1 mM). The dialysis cells were then sealed, secured in a Dianorm rotator unit and equilibrated for 18 hours at 37° C. While the dialysis cells were being equilibrated, the DMSO stock solutions were used for generating optimised HPLC/MS methods for use in the final analysis of the plasma and buffer samples.
(§7) After equilibration, the cells were opened and a Tecan liquid handling robot was used to remove aliquots from the plasma and buffer sides of each of the dialysis cells. Blank plasma was then added to the buffer samples and buffer added to the plasma samples such that each sample was in a matrix of 6-fold diluted plasma. Standards were then prepared from the DMSO stock solutions and blank 6-fold diluted plasma. The concentrations of the four standards were normally 50 nM, 150 nM, 500 nM and 2500 nM.
(§8) The samples and standards were then analysed using HPLC with MS detection, which allows deconvolution of the mixtures of compounds. The HPLC method involved a forward flushing column switching technique that allows direct injection of the diluted plasma.
(§9) The chromatograms were processed using MassLynx software that automatically i 5 calculates a calibration curve for each compound in a mixture and then interpolates the concentrations of buffer and plasma samples. These concentrations still need corrections for the dilution of the plasma. The percentage bound was calculated from the MassLynx data using the following equation: […]
(§10) The factor of 1.2 in the numerator accounts for the small dilution of the aqueous samples with plasma. The factor of 6 in the denominator serves to correct for the 6-fold dilution of the plasma samples with buffer.
(§11) The % free (100-% bound) for each compound was calculated from the concentration data, and then recorded.

[1] = as above; type: in vitro ADME, human; settings: human, plasma, pH 7.4, human plasma, equilibrium dialysis, 37° C., pH 7.4; read-out: Human plasma protein binding PPB (% free)
Protocol: as §1, §2, §3, §4, §5, §6, §7, §8, §9, §10, §11

[2] = Bioavailability (F) in the rat; type: in vivo; settings: plasma, 3 mg/kg; male rat, oral vs iv AUC, dose normalised
From the text: Bioavailability (F) in the Rat
This describes the methods used to obtain in vivo pharmacokinetic parameters in the male rat. It is applicable for use with any compound but may need modification based on such parameters as solubility, assay sensitivity, anticipated clearance and half-life, when the default formulation, dose level or sampling intervals may be inappropriate. The method described here represents a standard approach from which justified and documented modifications can be made. This method also allows for single compounds or mixtures (cassettes) to be administered.
A standard dose solution of 1 mg·mL^−1 was prepared. The recommended dose vehicle (if the compound was not sufficiently soluble in isotonic saline) was 50% PEG 400:50% sterile water. The required mass of compound was dissolved in the PEG400 before addition of the water. […]
The concentration of the analyte(s) were determined in plasma quantitative by mass spectrometry.
Pharmacokinetic data analysis and tabulation was achieved using WinNonlin and Excel. […] Bioavailability (F) was calculated from the ratio of the iv and oral AUC (the integral of the plasma concentration time curve) once dose normalised.

Human plasma protein binding PPB (% free) (human plasma proteins)	fraction unbound at 18 h, 10 µM [1]	free fraction in human plasma (in words) (human plasma proteins)	bioavailability [2] [%]	Structure (SMILES)
<0.2	–	–	–	Cc1ccc(CSc2nc(N[C@H](C)CO)cc(NS(=O)(=O)N3CCC3)n2)c(F)c1C [Example 42]
0.6	–	–	–	Cc1ccc(CSc2nc(N[C@H](C)CO)cc(NS(=O)(=O)N3CCC3)n2)c(F)c1C [Example 41]
–	< 0.002	–	–	Cc1cccc(CSc2nc(N[C@H](C)CO)cc(NS(=O)(=O)N3CCC3)n2)c1F [Example 40]
–	0.019	favourable free fraction in human plasma	49	C[C@@H](Nc1cc(NS(=O)(=O)N2CCC2)nc(SCc2cccc(F)c2F)n1)[C@@H](O)CO [Example 1, N-(2-[(2,3-difluorobenzyl)thio]-6-{[(1R,2R)-2,3-dihydroxy-1-methylpropyl]amino}pyrimidin-4-yl)azetidine-1-sulfonamide]
–	0.01	–	44	Cc1cccc(CSc2nc(N[C@H](C)CO)cc(NS(C)(=O)=O)n2)c1F [Example 39]
